# pIC50: −log10 of the molar value.
# Biological target: HPK1 (Homo sapiens (Human), UniProt Q92918)
# Assay: HPK1 Inhibition Assay (ADP-Glo kinase assay)
# Assay type: biochemical
# Conditions: ATP 10 μM
# In short: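 ADP-Glo luminescence read-out after 1 h room-temperature kinase reaction with 10 μM ATP and 0.1 μg/ml MBP. Recombinant human HPK1 at 7.5 ng/μl; buffer 40 mM Tris pH 7.5, 20 mM MgCl2. Compounds serially diluted 5-fold over 10 points from 10 mM DMSO stock.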
# HPK1, sequence (Q92918 1-346 limits assumed): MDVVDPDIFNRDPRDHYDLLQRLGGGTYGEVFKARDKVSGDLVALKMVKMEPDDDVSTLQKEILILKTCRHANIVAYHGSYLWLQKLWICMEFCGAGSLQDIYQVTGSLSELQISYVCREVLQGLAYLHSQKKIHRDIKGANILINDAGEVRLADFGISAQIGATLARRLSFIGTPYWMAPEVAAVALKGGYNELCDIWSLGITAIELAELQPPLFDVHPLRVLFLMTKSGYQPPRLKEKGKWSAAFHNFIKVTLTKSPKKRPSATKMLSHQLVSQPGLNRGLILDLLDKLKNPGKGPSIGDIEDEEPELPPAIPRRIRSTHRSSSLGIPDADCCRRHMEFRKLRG
row,pIC50,Compound
1,> 7.00,"Cc1nc2c(N3CC[C@@](C)(N)C3)c(NC(=O)c3ccc(=O)n(-c4c(F)cccc4F)n3)ccc2n1C [Example 90, (R)-N-(4-(3-amino-3-methylpyrrolidin-1-yl)-1,2-dimethyl-1H-benzo[d]imidazol-5-yl)-1-(2,6-difluorophenyl)-6-oxo-1,6-dihydropyridazine-3-carboxamide]"
2,> 7.00,"C[C@H]1CN(c2c(NC(=O)c3ccc(=O)n(-c4c(F)cccc4F)n3)ccc3nn(C(C)(C)C)cc23)C[C@@H]1N [Example 238, N-(4-((3R,4S)-3-amino-4-methylpyrrolidin-1-yl)-2-(tert-butyl)-2H-indazol-5-yl)-1-(2,6-difluorophenyl)-6-oxo-1,6-dihydropyridazine-3-carboxamide]"
3,> 7.00,"CCn1cc2c(N3CC[C@@H](N)C3)c(NC(=O)c3ccc(=O)n(-c4c(F)cccc4F)n3)ccc2n1 [Example 329, (R)-N-(4-(3-aminopyrrolidin-1-yl)-2-ethyl-2H-indazol-5-yl)-1-(2,6-difluorophenyl)-6-oxo-1,6-dihydropyridazine-3-carboxamide]"
4,> 7.00,"CC(C)n1nc(Cl)c2c(N3CC[C@@H](N)C3)c(NC(=O)c3ccc(=O)n(-c4c(F)cccc4F)n3)cc(F)c21 [Example 190, (R)-N-(4-(3-aminopyrrolidin-1-yl)-3-chloro-7-fluoro-1-isopropyl-1H-indazol-5-yl)-1-(2,6-difluorophenyl)-6-oxo-1,6-dihydropyridazine-3-carboxamide]"
5,> 7.00,"C[C@@H]1CN(c2c(NC(=O)c3ccc(=O)n(-c4c(F)cccc4F)n3)ccc3c2cnn3C2CCOCC2)C[C@@H]1N [Example 261, N-(4-((3R,4R)-3-amino-4-methylpyrrolidin-1-yl)-1-(tetrahydro-2H-pyran-4-yl)-1H-indazol-5-yl)-1-(2,6-difluorophenyl)-6-oxo-1,6-dihydropyridazine-3-carboxamide]"
6,> 7.00,Cn1c(C(C)(C)F)nc2c(N3CC[C@@H](N)C3)c(NC(=O)c3ccc(=O)n(-c4c(F)cccc4F)n3)ccc21 [Example 155]
7,> 7.00,"N#Cc1ccncc1-c1ccc(NC(=O)c2ccc(=O)n(-c3c(F)cccc3Cl)n2)c(N2C[C@@H](N)C[C@H]2CO)c1 [Example 361, N-(2-((2S,4S)-4-amino-2-(hydroxymethyl)pyrrolidin-1-yl)-4-(4-cyanopyridin-3-yl)phenyl)-1-(2-chloro-6-fluorophenyl)-6-oxo-1,6-dihydropyridazine-3-carboxamide]"
8,> 7.00,"CC(C)c1nc2c(N3CC[C@H](N)C3)c(NC(=O)c3ccc(=O)n(-c4c(F)cccc4F)n3)ccc2n1C [Example 132, (S)-N-(4-(3-aminopyrrolidin-1-yl)-2-isopropyl-1-methyl-1H-benzo[d]imidazol-5-yl)-1-(2,6-difluorophenyl)-6-oxo-1,6-dihydropyridazine-3-carboxamide]"
9,> 7.00,"CCn1ncc2c(N3CC[C@@H](N)C3)c(NC(=O)c3ccc(=O)n(-c4c(F)cccc4F)n3)cc(F)c21 [Example 289, (R)-N-(4-(3-aminopyrrolidin-1-yl)-1-ethyl-7-fluoro-1H-indazol-5-yl)-1-(2,6-difluorophenyl)-6-oxo-1,6-dihydropyridazine-3-carboxamide]"
10,> 7.00,"CC(C)n1nc(F)c2c(N3C[C@@H](C)[C@@H](N)C3)c(NC(=O)c3ccc(=O)n(-c4c(F)cccc4F)n3)ccc21 [Example 198, N-(4-((3R,4R)-3-amino-4-methylpyrrolidin-1-yl)-3-fluoro-1-isopropyl-1H-indazol-5-yl)-1-(2,6-difluorophenyl)-6-oxo-1,6-dihydropyridazine-3-carboxamide]"
11,> 7.00,"COCc1nc2c(N3CC[C@H](N)C3)c(NC(=O)c3ccnc(-c4c(F)cccc4OC)c3F)ccc2n1C [Example 15, N-{4-[(3S)-3-aminopyrrolidin-1-yl]-2-(methoxymethyl)-1-methyl-1,3-benzodiazol-5-yl}-3-fluoro-2-(2-fluoro-6-methoxyphenyl) pyridine-4-carboxamide]"
12,> 7.00,"Cc1nc2c(N3C[C@H](N)C4(CC4)C3)c(NC(=O)c3ccc(=O)n(-c4c(F)cccc4F)n3)ccc2n1C [Example 91, (R)-N-(4-(7-amino-5-azaspiro[2.4]heptan-5-yl)-1,2-dimethyl-1H-benzo[d]imidazol-5-yl)-1-(2,6-difluorophenyl)-6-oxo-1,6-dihydropyridazine-3-carboxamide]"
13,> 7.00,"Cc1nc2c(N3CC[C@](C)(N)C3)c(NC(=O)c3ccc(=O)n(-c4c(F)cccc4F)n3)ccc2n1C [Example 77, (S)-N-(4-(3-amino-3-methylpyrrolidin-1-yl)-1,2-dimethyl-1H-benzo[d]imidazol-5-yl)-1-(2,6-difluorophenyl)-6-oxo-1,6-dihydropyridazine-3-carboxamide]"
14,> 7.00,"CC(C)c1nc2c(N3CC[C@](N)(C(F)(F)F)C3)c(NC(=O)c3ccc(=O)n(-c4c(F)cccc4F)n3)ccc2n1C (single isomer, unassigned) [Example 139]"
15,> 7.00,"CC(C)(C)n1cc2c(N3CCC(N)CC3)c(NC(=O)c3ccc(=O)n(-c4c(F)cccc4F)n3)ccc2n1 [Example 240, N-(4-(4-aminopiperidin-1-yl)-2-(tert-butyl)-2H-indazol-5-yl)-1-(2,6-difluorophenyl)-6-oxo-1,6-dihydropyridazine-3-carboxamide]"
16,> 7.00,"CC(C)n1ncc2c(N3CC[C@@](C)(N)C3)c(NC(=O)c3ccc(=O)n(-c4c(F)cccc4F)n3)ccc21 [Example 208, (R)-N-(4-(3-amino-3-methylpyrrolidin-1-yl)-1-isopropyl-1H-indazol-5-yl)-1-(2,6-difluorophenyl)-6-oxo-1,6-dihydropyridazine-3-carboxamide]"
17,> 7.00,"COc1cccc(F)c1-c1nccc(C(=O)Nc2ccc3c(nc(C(F)F)n3C)c2N2CCC(N)C2)c1F (stereo in doubt) [Example 164, N-(4-((S)-3-aminopyrrolidin-1-yl)-2-(difluoromethyl)-1-methyl-1H-benzo[d]imidazol-5-yl)-3-fluoro-2-(2-fluoro-6-methoxyphenyl)isonicotinamide]"
18,> 7.00,"N#Cc1ccncc1-c1ccc(NC(=O)c2ccc(=O)n(-c3c(F)cccc3F)n2)c(N2CCN[C@H](CO)C2)c1 [Example 350, (S)-N-(4-(4-cyanopyridin-3-yl)-2-(3-(hydroxymethyl)piperazin-1-yl)phenyl)-1-(2,6-difluorophenyl)-6-oxo-1,6-dihydropyridazine-3-carboxamide]"
19,> 7.00,"CC(C)c1nc2c(N3CC[C@](N)(CO)C3)c(NC(=O)c3ccc(=O)n(-c4c(F)cccc4F)n3)ccc2n1C (single isomer, unassigned) [Example 124]"
20,> 7.00,"C[C@H]1CN(c2c(NC(=O)c3ccc(=O)n(-c4c(F)cccc4F)n3)ccc3c2cnn3[C@@H]2CCOC2)C[C@@H]1N [Example 259, N-(4-((3R,4S)-3-amino-4-methylpyrrolidin-1-yl)-1-((R)-tetrahydrofuran-3-yl)-1H-indazol-5-yl)-1-(2,6-difluorophenyl)-6-oxo-1,6-dihydropyridazine-3-carboxamide]"
21,> 7.00,"Cn1cc2c(N3CCC[C@@H](N)C3)c(NC(=O)c3ccc(=O)n(-c4c(F)cccc4F)n3)ccc2n1 [Example 176, (R)-N-(4-(3-aminopiperidin-1-yl)-2-methyl-2H-indazol-5-yl)-1-(2,6-difluorophenyl)-6-oxo-1,6-dihydropyridazine-3-carboxamide]"
22,> 7.00,"Cn1c(C(F)F)nc2c(N3CC[C@H](N)C3)c(NC(=O)c3ccc(=O)n(-c4c(F)cccc4F)n3)ccc21 [Example 161, (S)-N-(4-(3-aminopyrrolidin-1-yl)-2-(difluoromethyl)-1-methyl-1H-benzo[d]imidazol-5-yl)-1-(2,6-difluorophenyl)-6-oxo-1,6-dihydropyridazine-3-carboxamide]"
23,> 7.00,"C[C@@H]1CN(c2c(NC(=O)c3ccc(=O)n(-c4c(F)cccc4F)n3)ccc3nn(C45CC(C(F)(F)F)(C4)C5)cc23)C[C@@H]1N [Example 319, N-(4-((3R,4R)-3-amino-4-methylpyrrolidin-1-yl)-2-(3-(trifluoromethyl)bicyclo[1.1.1]pentan-1-yl)-2H-indazol-5-yl)-1-(2,6-difluorophenyl)-6-oxo-1,6-dihydropyridazine-3-carboxamide]"
24,> 7.00,"CC[C@]1(N)CCN(c2c(NC(=O)c3ccc(=O)n(-c4c(F)cccc4F)n3)ccc3c2nc(C(C)C)n3C)C1 [Example 122, (S)-N-(4-(3-amino-3-ethylpyrrolidin-1-yl)-2-isopropyl-1-methyl-1H-benzo[d]imidazol-5-yl)-1-(2,6-difluorophenyl)-6-oxo-1,6-dihydropyridazine-3-carboxamide]"
25,> 7.00,"N#Cc1ccncc1-c1ccc(NC(=O)c2ccc(=O)n(-c3c(F)cccc3F)n2)c(N2CC[C@](N)(C(F)(F)F)C2)c1 (single isomer, unassigned) [Example 358]"
26,> 7.00,"CC(C)n1cc2c(N3C[C@@H](C)[C@@H](N)C3)c(NC(=O)c3ccc(=O)n(-c4c(F)cccc4F)n3)ccc2n1 [Example 224, N-(4-((3R,4R)-3-amino-4-methylpyrrolidin-1-yl)-2-isopropyl-2H-indazol-5-yl)-1-(2,6-difluorophenyl)-6-oxo-1,6-dihydropyridazine-3-carboxamide]"
27,> 7.00,"CC(C)n1ncc2c(N3CC[C@@H](NCCO)C3)c(NC(=O)c3ccc(=O)n(-c4c(F)cccc4F)n3)ccc21 [Example 213, (R)-1-(2,6-difluorophenyl)-N-(4-(3-((2-hydroxyethyl)amino)pyrrolidin-1-yl)-1-isopropyl-1H-indazol-5-yl)-6-oxo-1,6-dihydropyridazine-3-carboxamide]"
28,> 7.00,"C[C@@H]1CN(c2c(NC(=O)c3ccc(=O)n(-c4c(F)cccc4F)n3)ccc3c2cnn3[C@@H]2CCOC2)C[C@@H]1N [Example 262, N-(4-((3R,4R)-3-amino-4-methylpyrrolidin-1-yl)-1-((R)-tetrahydrofuran-3-yl)-1H-indazol-5-yl)-1-(2,6-difluorophenyl)-6-oxo-1,6-dihydropyridazine-3-carboxamide]"

# Source: patent publication US20250122174A1 (Shenzhen Yuanli Shenwan Innovative Medicine Co., Ltd., priority 2022, published 2025)
